Measurements reported in patent publication US9655822B2, “Hydrated lamellar phases or liposomes which contain a fatty monoamine or a cationic polymer which promotes intracellular penetration, and a cosmetic or pharmaceutical composition containing same, as well as a method of screening such a substance” (BASF Beauty Care Solutions France S.A.S., priority 2004, dated 2017).

Key:
normal human fibroblasts [1] = experiment: Cell viability in the screening of functionalising molecules; settings: 1% of molecule (25 kDa PEI: 50 μM), 96-well plate
Method: 250 μl of liposomal suspension is added onto cultures of normal human fibroblasts extracted from abdominal plasy and cultivated in a 96-well plate. Each concentration is tested on 6 different wells. The cell viability is evaluated by a test with paranitrophenylphosphate which determines the intracellular alkaline phosphatase activity after three rinses with pH 7.4 phosphate buffer. The percentage of living cells is calculated with respect to a control made without the addition of liposome in the culture well (n=6).
55 molecules are firstly tested in triplicate, in comparison with the 50 μM 25 kDa PEI. The intracellular penetration is quantified after 24 hours of incubation on normal human fibroblasts cultivated in 24-well plates as described in Example 2. The cell viability is estimated in a 96-well plate with 200 μl of liposomal suspension.
The intracellular penetration and the cytotoxicity are evaluated as described in Example 2.

[2] = Encapsulation of fluorescent tracer in soya lecithin liposomes (yield, leak); type: physicochemical
Method: 0.5 g of soya lecithin, 0.01% of fluorescent tracer which is pre-solubilised according to the recommendations of the provider, are introduced into a dish and is diluted in 10 ml of Trizma buffer. After magnetic agitation for 30 minutes at ambient temperature, the mixture is vigorously homogenised for 10 minutes, in thus obtaining a liposomal solution in which the liposomes have an average size which can vary between 100 and 800 nanometres according to the exact conditions of homogenisation.
The aim of the purification step is to separate the non-encapsulated tracer fraction from the fraction of tracer which is encapsulated in the liposomes. For this, the liposomal solution is centrifuged in a conical tube for 10 minutes at 1,790 g at ambient temperature. The plugs are then recovered and then solubilised in 10 ml of culture medium.
Liposomes are prepared according to the method described in Example 5 with increasing concentrations of 25 kDa PEI from 0 to 100 μM. After centrifugation at 1,790 g for 10 minutes, the supernatants are quantified by spectrofluorimetry. The yields of encapsulation are calculated with respect to the initial concentration.

normal human fibroblasts [3] = experiment: Cytotoxicity of the fluorescent tracers (paranitrophenylphosphate test); type: cell-based; settings: for Cell viability (% of untreated control): incubation 24 hours
Method: Each concentration is tested on 6 different wells.
(§1) The selection of the tracer necessitated the preparation and the purification of liposomes, according to the protocol described in Example 1, these liposomes containing varying concentrations of the various hydrosoluble or liposoluble tracers (Table 1, Annex 1). The controls—a free fluorescent tracer—are made by dissolution at the same concentration of fluorescent tracer in the dilution buffer, so as to quantify its cytotoxicty and its spontaneous penetration in the fibroblasts.
(§2) The fibroblasts are incubated for 24 hours at 37° C. in the presence of the liposomes, and are then rinsed 3 times in pH 7.4 phosphate buffer. First of all, the fluorescence is evaluated dry by spectrofluorimetry with a Cytofluor 4000® (Millipore). Secondly, the intracellular fluorescence is observed for the molecules of interest on an Olympus® reverse microscope (IX70) by using the corresponding excitation filter (objective ×10, ×40 and ×100). Finally, the cytotoxicity of the fluorescent tracers is evaluated in a 96-well plate by incubation for 24 hours as described in Example 1.

normal human fibroblasts [4] = experiment: Intracellular penetration of fluorescent tracers, free or in liposomes (spectrofluorimetry); type: cell-based; settings: for Penetration (fluorescence after washing): 0.01% tracer in liposomes; for Penetration (fluorescence after washing) / Penetration free probe: 24 hours, gain (45 PFB-F, 50 TRITC); for Penetration in liposome: probe encapsulated in liposome; for cell-permeating: free probe
From the text: as §1
Practically, after extraction from a biopsy originating from abdominal plastic surgery, the fibroblasts are amplified in DF medium, i.e.: DMEM (Dulbecco's Modified Eagle's Medium)/Ham F12 glutamax 50/50 volume/volume, supplemented with 10% of calf serum, with penicillin at a final concentration of 100 UI/millilitre, with gentamicin at a final concentration of 1 microgram/millilitre, with amphotericin B at a final concentration of 1 microgram/millilitre.
Firstly, after centrifugation, the purified liposomes are taken up into DF culture medium, homogenised in a vortex, and are deposited at the rate of 1 ml per well on the fibroblasts cultivated in 24-well plates (Costar MW24). The controls are made under the same conditions. A non-treated control is also made.
as §2
The intracellular penetration of liposomes which contain 5% of soya lecithin, 0.01% of PFB-F or TRITC in the presence or not of 0.5% 25 kDa polyethylenimine (PEI), which are prepared according to the protocol described in Example 1, is analysed after incubation for 24 hours on human fibroblasts cultivated in a 24-well plate, as described in Example 2.

tyrosinase = target: T1, tyrosinase (Homo sapiens, UniProt P14679); experiment: Tyrosinase activity in melanocytes (L-DOPA/MBTH); type: cell-based; set-up: unit not given here; settings: 66 hours; for Depigmenting effect: rate of enzymatic reaction (tyrosinase activity), Free: active applied free, normal human melanocytes; for Depigmenting effect: rate of enzymatic reaction (tyrosinase activity), PEI Liposome: active in 10 μM PEI functionalised liposome; for Depigmenting effect: rate of enzymatic reaction (tyrosinase activity), Soya liposome: active in 2% quaternised soya liposome; for Depigmenting effect: rate of enzymatic reaction (tyrosinase activity), Lipsosome: active in 5% lecithin liposome
T1 construct: on normal human melanocytes cultivated in 24-well plates and pre-confluent; endogenous in cells; host or cells: normal human melanocytes
T1 sequence (P14679 19-529): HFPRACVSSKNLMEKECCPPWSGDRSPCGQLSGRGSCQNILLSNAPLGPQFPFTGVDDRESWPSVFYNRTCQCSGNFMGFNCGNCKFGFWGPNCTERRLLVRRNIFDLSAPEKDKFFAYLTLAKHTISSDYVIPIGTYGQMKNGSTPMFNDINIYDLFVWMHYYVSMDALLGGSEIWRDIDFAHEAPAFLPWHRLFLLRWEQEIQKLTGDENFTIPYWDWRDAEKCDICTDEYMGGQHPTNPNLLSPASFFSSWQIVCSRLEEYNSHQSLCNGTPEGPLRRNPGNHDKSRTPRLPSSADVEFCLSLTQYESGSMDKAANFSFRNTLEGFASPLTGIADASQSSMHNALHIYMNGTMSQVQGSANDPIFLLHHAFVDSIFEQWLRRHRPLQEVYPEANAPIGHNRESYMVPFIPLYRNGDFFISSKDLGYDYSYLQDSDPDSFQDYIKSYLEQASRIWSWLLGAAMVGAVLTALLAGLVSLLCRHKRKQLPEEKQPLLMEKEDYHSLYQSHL
Method: Actives are also co-encapsulated: Phytolight® (Coletica, Lyons, France) without 0.05% preservative (cocktail of plant actives), 0.05% arbutine and 1 mM catechin (Sigma). […] The actives which are liposomed or not are incubated for 66 hours at 37° C. under 5% CO2 in MMK2 medium (Sigma). […] The formation of a MBTH-o-quinone compound is characterised by an absorbance value at 490 nm quantified kinetically. The tyrosinase activity is expressed by the slope (rate) of the enzymatic reaction.

CCCCCCCCCCNCCCCCCCCCC [Didecylamine 2 C10, Didecylamine]
Viability (normal human fibroblasts [1]): 28.3%

carboxyethyl carboxyffluorescein [#B-1151 carboxyethyl carboxyffluorescein]
Encapsulated [2]: No

tetramethylrhodamine isothiocyanate [TRITC]
Toxicity (normal human fibroblasts [3]): No | cytotoxicity (in words) (normal human fibroblasts [3]): slightly cyctotoxic | Cell viability (% of untreated control) (normal human fibroblasts [3]): 74.8% | Penetration (fluorescence after washing) (normal human fibroblasts [4]): 1,119 (gain 50) | penetration when added free in the culture medium (in words) (normal human fibroblasts [4]; free tracer): penetrates slightly | Penetration free probe (normal human fibroblasts [4]; free tracer): 295 (gain 50) | Penetration in liposome (normal human fibroblasts [4]): Yes | Encapsulated [2]: Yes

CCCCCCCCCCCN [Undecylamine C11, Undecylamine]
Viability (normal human fibroblasts [1]): 84%

O=S(=O)([O-])c1cc(O)c2ccc3c(S(=O)(=O)[O-])cc(S(=O)(=O)[O-])c4ccc1c2c34.[Na+].[Na+].[Na+] [hydroxypyrene trisulfonic acid, trisodium salt]
cell-permeating (normal human fibroblasts [4]): No | Penetration in liposome (normal human fibroblasts [4]): No | Encapsulated [2]: No

CCCCCCCCCCN [Decylamine C10, Decylamine]
Viability (normal human fibroblasts [1]): 68.5%

Lysosensor yellow/blue DND 160 [#L7545L Lysosensor yellow/blue DND 160]
Toxicity (normal human fibroblasts [3]): No | cell-permeating (normal human fibroblasts [4]): Yes | Penetration in liposome (normal human fibroblasts [4]): No | Encapsulated [2]: Yes | leak [2]: Yes

CC(O)CN(CCN(CC(C)O)CC(C)O)CC(C)O (stereo not shown) [Tetrahydroxypropyl ethylenediamine]
Viability (normal human fibroblasts [1]): 95.3%

CCCCCCCCCCCCCCN [Tetradecylamine C14, Tetradecylamine]
Viability (normal human fibroblasts [1]): 54.8%

CCCCNCCCC [Dibutylamine 2 C4, Dibutylamine]
Viability (normal human fibroblasts [1]): 75.7%

OC[C@H]1O[C@@H](Oc2ccc(O)cc2)[C@H](O)[C@@H](O)[C@@H]1O [Arbutin]
Depigmenting effect: rate of enzymatic reaction (tyrosinase activity), Free (tyrosinase): 0.004 | Depigmenting effect: rate of enzymatic reaction (tyrosinase activity), PEI Liposome (tyrosinase): 0 | Depigmenting effect: rate of enzymatic reaction (tyrosinase activity), Soya liposome (tyrosinase): 0 | Depigmenting effect: rate of enzymatic reaction (tyrosinase activity), Lipsosome (tyrosinase): 0.001

CCCCCCCCCCCCN [Dodecylamine C12, Dodecylamine]
Viability (normal human fibroblasts [1]): 57%

CCCCCCN [Hexylamine C6, Hexylamine]
Viability (normal human fibroblasts [1]): 82.1%

CCCCCCCCCCCCCN [Tridecylamine C13, Tridecylamine]
Viability (normal human fibroblasts [1]): 62.6%

Cc1ccc(N(CC(=O)[O-])CC(=O)[O-])c(OCCOc2cc3cc(-c4ncc(C(=O)[O-])o4)oc3cc2N(CC(=O)[O-])CC(=O)[O-])c1.[K+].[K+].[K+].[K+].[K+] [#F-1200 Fura-2. pentapotassium salt, Fura-2. pentapotassium salt]
Toxicity (normal human fibroblasts [3]): No | cell-permeating (normal human fibroblasts [4]): No | Penetration in liposome (normal human fibroblasts [4]): No | Encapsulated [2]: No

O=C1OC2(c3ccc(O)cc3Oc3cc(O)ccc32)c2ccc(NC(=O)c3c(F)c(F)c(F)c(F)c3F)cc21 [PFB-F, 5-pentafluorobenzoylaminofluorescein]
Cell viability (% of untreated control) (normal human fibroblasts [3]): 110.7% | Penetration (fluorescence after washing) (normal human fibroblasts [4]): 65 (gain 45) | cell-permeating (normal human fibroblasts [4]): No | Penetration free probe (normal human fibroblasts [4]; free tracer): 8 (gain 45) | Penetration in liposome (normal human fibroblasts [4]): Yes | Encapsulated [2]: Yes | leak [2]: No | Yield (%) of encapsulation of PFB-F ([2]; PEI 0 μM): 89.0% | Yield (%) of encapsulation of PFB-F ([2]; PEI 1 μM): 92.3% | Yield (%) of encapsulation of PFB-F ([2]; PEI 10 μM): 91.0% | Yield (%) of encapsulation of PFB-F ([2]; PEI 50 μM): 87.5% | Yield (%) of encapsulation of PFB-F ([2]; PEI 100 μM): 86.3% | yield of incorporation in the liposomes ([2]; liposomes based on soya lecithin): about 80%

CCCCCCCCCCCCCCCCCC[N+](C)(C)Cc1ccccc1.[Cl-] [Stearalkonium chloride, benzyldimethyl (octadecyl) ammonium chloride]
Viability (normal human fibroblasts [1]): 37.4%

CCCN [Propylamine C3, Propylamine]
Viability (normal human fibroblasts [1]): 103.3%

NNC(=O)COc1cc(S(=O)(=O)[O-])c2ccc3c(S(=O)(=O)[O-])cc(S(=O)(=O)[O-])c4ccc1c2c43.[Na+].[Na+].[Na+] [cascade blue hydrazine trisodium salt]
Toxicity (normal human fibroblasts [3]): No | cell-permeating (normal human fibroblasts [4]): No | Penetration in liposome (normal human fibroblasts [4]): Very low | Encapsulated [2]: Yes

CCCCCCCC/C=C\CCCCCCCCN [Oleylamine C18:1, Oleylamine]
Viability (normal human fibroblasts [1]): 87.1%

carboxy dichlorofluorescein [#C-369 carboxy dichlorofluorescein]
cell-permeating (normal human fibroblasts [4]): Yes | Encapsulated [2]: Yes | leak [2]: Yes

CCCCCCCN [Heptylamine C7, Heptylamine]
Viability (normal human fibroblasts [1]): 39.4%

Catechin
Depigmenting effect: rate of enzymatic reaction (tyrosinase activity), Free (tyrosinase): 0.007 | Depigmenting effect: rate of enzymatic reaction (tyrosinase activity), PEI Liposome (tyrosinase): 0 | Depigmenting effect: rate of enzymatic reaction (tyrosinase activity), Soya liposome (tyrosinase): 0.003 | Depigmenting effect: rate of enzymatic reaction (tyrosinase activity), Lipsosome (tyrosinase): 0.007

CCCCCCCCNCCCCCCCC [Dioctylamine 2 C8, Dioctylamine]
Viability (normal human fibroblasts [1]): 34.7%

sulfo fluorescein diacetate [#S-1129 sulfo fluorescein diacetate]
Toxicity (normal human fibroblasts [3]): No | cell-permeating (normal human fibroblasts [4]): no | Penetration in liposome (normal human fibroblasts [4]): Very low

dextran texas red [#D-3329 dextran texas red]
cell-permeating (normal human fibroblasts [4]): No | Penetration in liposome (normal human fibroblasts [4]): No

CCCCCCCCCCCCCCCCCCN [Octadecylamine C18, Octadecylamine]
Viability (normal human fibroblasts [1]): 61.2%

CCCCCCCCCCCCCCCN [Pentadecylamine C15, Pentadecylamine]
Viability (normal human fibroblasts [1]): 73%
